Experiment [1] deals with DU 145 cells. As to the kind of experiment: MTT cytotoxicity (cell viability) assay, DU 145. Particulars: for dose from which decrease in cell viability is significant: DU 145, MTT, vs untreated; for EC50: Homo sapiens, DU-145, MTT, 72 h treatment, mean ± SD, three experiments, read-out: EC50 Values (µM) of Compounds on Cell Lines DU 145; for Selective index (SX) WI-38 vs DU 145: SX = EC50 (WI-38)/EC50 (DU 145) × 100; for Selective index (SX) WRL68 vs DU 145: SX = EC50 (WRL68)/EC50 (DU 145) × 100. It is filed as cell-based, human. As to the method:
(§1) Cell viability was determined by the MTT [3-(4,5-dimethylthiazol-2-yl)-2,5-diphenyltetrazolium bromide] assay, as previously described by Mosmann with modifications. Briefly, cells were detached from the tissue culture flask and pelleted by centrifugation at 1000 rpm for 5 min. Then, the density of the viable cells was counted using a haemocytometer. Cells were then plated in a 96-well flat bottom micro-titer plate (Nunc) at a concentration of 10^4 cells/mL and incubated in a 5% CO2 incubator at 37 °C overnight to allow the cells to adhere to the bottom of the wells. After 24 h, the media was aspirated off and replaced with fresh media containing sample compounds (curcumin and curcumin analogues) of seven different concentrations ranging from 1.56 µM–100 µM and incubated at 37 °C, 5% CO2 for 72 h. Separately, the sample compounds were prepared in a stock solution of 50 mM in 100% dimethyl sulfoxide (DMSO, Molecular Biology Grade, Sigma-Aldrich, St. Louis, MO, USA) and diluted in the culture media to a working concentration of 200 µM. Curcumin, the parent compound which was used as the positive control was also prepared in the similar manner. A two-fold serial dilution was done for each sample in triplicates down the columns of the plate, yielding a final volume and concentration of 100 µL in 0.2% DMSO in each wells. Following treatment, 50 µL MTT solutions (0.5 mg/mL in PBS) was added to each well and incubated for another 4 h at 37 °C in a humidified 5% CO2 incubator. The supernatant was replaced with 100 µL of DMSO and the optical density (OD) was measured at 570/650 nm using a micro-plate ELISA reader (Bio-Rad Laboratories, Hercules, CA, USA). The percentage of viable cells was calculated based on the ratio of the corrected absorbance of sample-treated cells to the corrected absorbance of the control (0.2% DMSO-treated cells) multiplied by 100. The percentage of cell viability was determined as follows: % Cell viability= OD of treated cells /OD of control ×100
(§2) For each compound tested, the EC50 value was generated from the log dose-response curves for each cell line using the Graphpad Prism version 5.04 for Windows (Graphpad Software, La Jolla, CA, USA). […] Cytotoxicity of each tested compound is expressed as the EC50 value. Based on the EC50 values, selectivity index (SX) value was also determined. Selectivity index is a special parameter applied as a selectivity indicator of tested compounds towards cancer cells. The SX represents the ratio of EC50 value obtained in toxicity testing using the normal cell lines to the EC50 values of the toxicity testing of the cancer cells, and then multiplied by 100. All the compounds were assessed for their potential toxicity against normal, non-cancerous cells. […] The SX values were calculated using the following equation: SX = EC50 (normal cells)/EC50 (cancer cells) × 100

In experiment [2] the test system is PC-3 cells. As to the kind of experiment: BrdU cell proliferation assay, PC-3. Type of experiment: cell-based, human. The note with it: PC-3, BrdU. As for the experimental part:
(§3) The anti-proliferative effects of compound on treated cells, was measured using the BrdU cell proliferation assay kit (Roche Applied Science Diagnostics, Indianapolis, IN, USA) according to the manufacturer’s protocol. The assay was based on incorporation of BrdU during DNA synthesis in proliferating cells. Cells were plated at a concentration of 10^4 cells/mL in a 96-well microtiter plate and incubated overnight. The cells were treated with compounds and curcumin (concentrations ranging from 1.56 µM–100 µM) as positive control for 24, 48 and 72 h respectively. Then, BrdU labeling solution (5 µL, diluted by 1/100 in culture media) was added to each well and incubated for 2 h at 37 °C. The media was replaced with fix/denaturing solution (100 µL) and incubated for 30 min at room temperature. Then, the fix/denaturing solution was removed by tapping off and followed by addition of 50 µL anti-BrdU antibody (50 µL, diluted by 1/100 in dilution buffer) to each well and further incubated for another 90 min at room temperature. Next, the cells were washed 3 times with wash buffer and substrate solution (50 µL) was added to each well. The plate was left for 10 min at room temperature in the dark and the absorbance was measured at a wavelength of 370 nm with a reference wavelength of 492 nm using a micro-plate ELISA reader (Bio-Rad). The percentage of BrdU incorporation was determined based on the ratio of absorbance of sample treated-cells to absorbance of control (untreated cells/DMSO only) multiplied by 100.

The subject of experiment [3] is WRL 68 (human epithelial hepatocytes). As to the kind of experiment: MTT cytotoxicity assay, normal WRL 68. Type of experiment: cell-based. The note with it: WRL68, normal cell line, 72 h treatment, mean ± SD, read-out: EC50 Values (µM) of Compounds on Cell Lines WRL-68. As for the experimental part:
as §1, §2
(In general: Tetrazolium dyes change colour on reduction, which living cells bring about.)

For experiment [4], the system named is DU 145 cells. As to the kind of experiment: BrdU cell proliferation assay, DU 145. Type of experiment: cell-based, human. The note with it: DU 145, BrdU. As to the method: as §3
The subject of experiment [5] is WI-38 (human lung fibroblast cells). As to the kind of experiment: MTT cytotoxicity assay, normal WI-38. It is filed as cell-based. The note with it: normal cell line, 72 h treatment, mean ± SD, read-out: EC50 Values (µM) of Compounds on Cell Lines WI-38. As for the experimental part: as §1, §2
Experiment [6] relates to PC-3 cells. Description: MTT cytotoxicity (cell viability) assay, PC-3. Type of experiment: cell-based, human. The note with it: for EC50: Homo sapiens, PC-3, MTT, 72 h treatment, mean ± SD, three experiments, read-out: EC50 Values (µM) of Compounds on Cell Lines PC-3; for dose from which decrease in cell viability is significant: PC-3, MTT, vs untreated; for Selective index (SX) WI-38 vs PC-3: SX = EC50 (WI-38)/EC50 (PC-3) × 100; for Selective index (SX) WRL68 vs PC-3: SX = EC50 (WRL68)/EC50 (PC-3) × 100. As for the experimental part:
as §1, §2

Experiment [7] deals with caspase-3 activity in DU 145 cells. Description: Caspase-3 colorimetric activity assay, DU 145. Type of experiment: cell-based, human. The note with it: DU 145, all time points, inhibitor control. As to the method: (§4) Caspase-3 activity was determined using the caspase-3 colorimetric assay kit (Sigma-Aldrich) according to manufacturer’s protocol. The assay is based on spectrophotometric detection of p-nitroanilide (pNA) a colored molecule, after its cleavage from the labeled substrate DEVD-pNA by the activity of caspase-3 enzyme. PC-3 and DU 145 cells were treated with MS17 at different concentrations (EC50, 2 × EC50, 3 × EC50) at various time points, 6, 12, 24, 48 and 72 h as appropriate. Following treatment, cells were washed with PBS and suspended with lysis buffer (50 mM HEPES, pH 7.4, 5 mM CHAPS, 5 mM DTT) for 30 min on ice at the concentration of 10^7 cells per 100 µL buffer. Cells were then spun for 30 min at 16,000× g, 4 °C. Protein lysate concentrations were measured based on the Bradford assay method using the Cayman Chemical protein determination kit (Cayman Chemical Company, Ann Arbor, MI, USA) based on the manufacturer’s protocol. Assay was performed on a 96-well micro-titer plate by adding equal amount of protein lysate (~100 µg) into wells containing the assay buffer (20 mM HEPES pH 7.4, 0.1% CHAPS, 5 mM DTT, 2 mM EDTA). Reaction was started by the addition of 10 µL of substrate Ac-DEVD-pNA (2 mM). The effect of Ac-DEVD-CHO, a caspase-3 inhibitor was also studied simultaneously on caspase-3 activity. Ten microliter of the inhibitor (200 µM) was added into the wells containing the protein lysate, assay buffer and the substrate. Caspase-3 activity was measured upon the release of pNA molecule, a pale yellow colored product using the micro-plate ELISA reader (Bio-Rad) at the wavelength of 405 nm. Relative caspase-3 activity was expressed as absorbance of enzyme activity compared with the control (untreated cells/DMSO only) based on the equation below: Relative caspase 3 activity= Absorbance of treated cells /Absorbance of control

The subject of experiment [8] is caspase-3 activity in PC-3 cells. As to the kind of experiment: Caspase-3 colorimetric activity assay, PC-3. Type of experiment: cell-based, human. The note with it: PC-3, all time points, inhibitor control. As for the experimental part: as §4

The text below walks through data of article PMC6272399, “Anti-Proliferative Effect and Induction of Apoptosis in Androgen-Independent Human Prostate Cancer Cells by 1,5-Bis(2-hydroxyphenyl)-1,4-pentadiene-3-one” (Molecules, 2015).

As for `COc1cc(/C=C/C(=O)CC(=O)/C=C/c2ccc(O)c(OC)c2)ccc1O` [Curcumin, diferuloylmethane, reference compound], the “dose from which decrease in cell viability is significant” value in experiment [1] and in experiment [6] was 50 µM each time. Further, the EC50 in experiment [1] amounted to 32.5 ± 1.4 µM; in experiment [3], 28.7 ± 3.2 µM; in experiment [5] it was 27.9 ± 2.9 µM; in experiment [6], 35.9 ± 2.9 µM. Further, the “Selective index (SX) WI-38 vs DU 145” value in experiment [1] is 85.8. Besides, the “Selective index (SX) WRL68 vs DU 145” value in experiment [1] was determined as 88.2. Further, the “concentration from which anti-proliferative activity is significant” value in experiment [2] (24 h), in experiment [2] (48 h), in experiment [2] (72 h), in experiment [4] (24 h), in experiment [4] (48 h) and in experiment [4] (72 h) was 50 µM in each case. In addition, the “Selective index (SX) WI-38 vs PC-3” value in experiment [6] amounted to 77.5. In addition, in experiment [6], the “Selective index (SX) WRL68 vs PC-3” value was 79.8.

On to `COc1cc(C=CC(=O)C=Cc2ccc(O)c(OC)c2)ccc1O` [MS13, 1,5-bis(4-hydroxy-3-methoxyphenyl)-1,4-pentadiene-3-one], for which the results for the “dose from which decrease in cell viability is significant” value in experiment [1] and in experiment [6] were 12.5 µM and 6.3 µM, respectively. For the same compound, the EC50 in experiment [1] turned out to be 7.4 ± 2.6 µM; in experiment [3], 8.7 ± 0.2 µM; in experiment [5], 9.4 ± 2.3 µM; in experiment [6] it was 7.5 ± 0.1 µM. The “Selective index (SX) WI-38 vs DU 145” value in experiment [1] was 127.2. Also, the “Selective index (SX) WRL68 vs DU 145” value in experiment [1] was found to be 117.3. Besides, the “concentration from which anti-proliferative activity is significant” value in experiment [2] (24 h) came out at 12.5 µM; in experiment [2] (48 h) it was 12.5 µM; in experiment [2] (72 h), 12.5 µM; in experiment [4] (24 h) it was 12.5 µM; in experiment [4] (48 h), 12.5 µM; in experiment [4] (72 h), 25 µM. Besides, in experiment [6], the “Selective index (SX) WI-38 vs PC-3” value is 124.8. The “Selective index (SX) WRL68 vs PC-3” value in experiment [6] stood at 115.1.

On to `O=C(C=Cc1cccc(F)c1)C=Cc1cccc(F)c1` [MS40E, 1,5-bis(3-fluorophenyl)-1,4-pentadiene-3-one], for which the “dose from which decrease in cell viability is significant” value in experiment [1] and in experiment [6] was 50 µM throughout. Also, the EC50 in experiment [1] amounted to 30.3 ± 1.9 µM; in experiment [3], 30.3 ± 2 µM; in experiment [5], 28.4 ± 1.7 µM; in experiment [6], 28 ± 7.8 µM. The “Selective index (SX) WI-38 vs DU 145” value in experiment [1] is listed as 93.5. Besides, the “Selective index (SX) WRL68 vs DU 145” value in experiment [1] was found to be 100.0. The “concentration from which anti-proliferative activity is significant” value in experiment [2] (24 h), in experiment [2] (48 h), in experiment [2] (72 h), in experiment [4] (24 h), in experiment [4] (48 h) and in experiment [4] (72 h) was 50 µM in each case. In addition, the “Selective index (SX) WI-38 vs PC-3” value in experiment [6] was 101.4. Besides, in experiment [6], the “Selective index (SX) WRL68 vs PC-3” value is listed as 108.3.

As to `O=C1C(=Cc2cccc(F)c2)CCCC1=Cc1cccc(F)c1` [MS49, 2,6-bis(3-fluorobenzylidene)cyclohexanone], the “dose from which decrease in cell viability is significant” value in experiment [1] was 25 µM; in experiment [6], 12.5 µM. Moreover, the concentration for a half-maximal effect (EC50) in experiment [1] came to 12.3 ± 2.3 µM; in experiment [3], 13.1 ± 0.4 µM; in experiment [5], 19.4 ± 7 µM; in experiment [6], 14.5 ± 1.2 µM. Moreover, the “Selective index (SX) WI-38 vs DU 145” value in experiment [1] came out at 158.6. The “Selective index (SX) WRL68 vs DU 145” value in experiment [1] is given as 106.8. Moreover, the “concentration from which anti-proliferative activity is significant” value in experiment [2] (24 h) is on record as 25 µM; in experiment [2] (48 h), 25 µM; in experiment [2] (72 h), 25 µM; in experiment [4] (24 h), 25 µM; in experiment [4] (48 h), 25 µM; in experiment [4] (72 h) it was 50 µM. Also, the “Selective index (SX) WI-38 vs PC-3” value in experiment [6] is recorded as 134.3. Besides, the “Selective index (SX) WRL68 vs PC-3” value in experiment [6] worked out at 90.4.

In the case of Ac-DEVD-CHO [reference compound], the “relative caspase-3 activity with caspase-3 inhibitor” value in experiment [7] and in experiment [8] was “relatively low expression levels” in each case.

For orientation: EC50 means the concentration that produces a half-maximal response.
